“Also recorded” adds a separate entry of the source.
Tests used:
Assay type in all cases: cell-based
chicken CTR + RAMP2 [1] = test: MAPK/ERK pGL4-SRE-luciferase reporter assay, CTR + RAMP2 in CHO cells; conditions: 10^−12 M to 10^−6 M, 6 h, mean ± SEM, n = 3, read-out: EC50, MAPK/ERK signaling pathway
Method: (§1) Chinese hamster ovary (CHO) cells were cultured in Dulbecco’s modified Eagle’s medium (DMEM) supplemented with 10% (vol/vol) fetal bovine serum (HyClone, Logan, UT, USA), 100 U/mL penicillin G and 100 μg/mL streptomycin. The cells were maintained in a 90 mm culture dish (Nunc, Rochester, NY, USA) and incubated at 37 °C with 5% CO2. To investigate the signaling pathways associated with each receptor in CHO cells, three different reporter systems (pGL3-CRE-luciferase, pGL4-SRE-luciferase, and pGL3-NFAT-RE-luciferase) were utilized to monitor intracellular cAMP/PKA and MAPK/ERK signaling pathways and calcium mobilization of the activated receptors, respectively.
(§2) Prior to the transfection procedure, the cells were initially cultured in 6-well plates (Nunc, Rochester, NY, USA), maintaining a seeding density of approximately 300,000 cells per well. Upon achieving approximately 70% confluence, the cells underwent a co-transfection process. […] The fluorescence activity of the luciferase in each treatment group was measured using a multimode microplate reader (TriStar LB941, Berthold Technologies, Bad Wildbad, Germany). Finally, the fluorescence activity of each treatment group was expressed as a relative increase ratio compared to the control group.

chicken CLR [2] = test: Western blot CREB phosphorylation, CLR in CHO cells; conditions: 10 nM, 10 min, n = 3
Method: (§3) To assess whether the activation of chicken CTR and CLR, along with the presence of RAMPs, can augment the phosphorylation levels of cAMP response element-binding protein (CREB), 200 ng of CTR or CLR expression plasmids were combined with 1000 ng of chicken RAMPs or an empty pcDNA3.1 (+) vector in a 100 μL buffer. The resulting mixture was then transfected into CHO cells in a 12-well plate (Nunc, Rochester, NY, USA) using 3.6 μL of PEI MAX transfection reagent. After a 24 h incubation period, the cells were exposed to chicken CT (10 nM) or CGRP (10 nM) for 10 min. Subsequently, the culture medium was removed, and the cells were lysed according to the manufacturer’s instructions. Western blot analysis was performed to quantify the levels of CREB and phosphorylated CREB (p-CREB). The optical densities were analyzed and normalized using the software, ImageJ 1.52a (National Institutes of Health, Bethesda, MD, USA). The relative expression of p-CREB/CREB was determined by calculating the ratio of the optical density to that of the control without peptide treatment (0 min).

chicken CLR + RAMP1 = test: cAMP/PKA pGL3-CRE-luciferase reporter assay, CLR + RAMP1 in CHO cells; conditions: CLR + RAMP1, CHO cells, pGL3-CRE-luciferase, 10^−12 M to 10^−6 M, 6 h; mean ± SEM, n = 3; read-out: EC50, cAMP/PKA signaling pathway
Method: as §1
(§4) Prior to the transfection procedure, the cells were initially cultured in 6-well plates (Nunc, Rochester, NY, USA), maintaining a seeding density of approximately 300,000 cells per well. Upon achieving approximately 70% confluence, the cells underwent a co-transfection process. This procedure entailed the introduction of 700 ng of various luciferase reporter constructs (namely, pGL3-CRE-luciferase, pGL4-SRE-luciferase, or pGL3-NFAT-RE-luciferase) combined with 200 ng of a specific receptor plasmid (CTR or CLR) and 1000 ng of either RAMP1, RAMP2, RAMP3 expression plasmids, or alternatively, the empty pcDNA3.1 (+) vector. A volume of 5.7 μL of PEI MAX was used in 200 μL of buffer following the manufacturer’s protocol. After 24 h of incubation, the transfected CHO cells were subcultured in 96-well plates and passaged for an additional 24 h before peptide treatment. Then, the medium from the 96-well plates was removed, and the cells were treated with chicken CT/CGRP-containing medium (or untreated medium as a control) at concentrations ranging from 10^−12 M to 10^−6 M for 6 h. […] The fluorescence activity of the luciferase in each treatment group was measured using a multimode microplate reader (TriStar LB941, Berthold Technologies, Bad Wildbad, Germany). Finally, the fluorescence activity of each treatment group was expressed as a relative increase ratio compared to the control group.

chicken CTR + RAMP1 [3] = test: Calcium pGL3-NFAT-RE-luciferase reporter assay, CTR + RAMP1 in CHO cells; conditions: 10^−12 M to 10^−6 M, 6 h, mean ± SEM, n = 3, read-out: EC50, calcium signaling pathway
Method: as §1, §2

chicken CTR [4] = test: MAPK/ERK pGL4-SRE-luciferase reporter assay, CTR + pcDNA in CHO cells; conditions: 10^−12 M to 10^−6 M, 6 h, mean ± SEM, n = 3, read-out: EC50, MAPK/ERK signaling pathway
Method: as §1, §2

chicken CLR + RAMP2 = test: cAMP/PKA pGL3-CRE-luciferase reporter assay, CLR + RAMP2 in CHO cells; conditions: 10^−12 M to 10^−6 M, 6 h, mean ± SEM, n = 3, read-out: EC50, cAMP/PKA signaling pathway
Method: as §1, §2

chicken CLR + RAMP3 = test: cAMP/PKA pGL3-CRE-luciferase reporter assay, CLR + RAMP3 in CHO cells; conditions: 10^−12 M to 10^−6 M, 6 h, mean ± SEM, n = 3, read-out: EC50, cAMP/PKA signaling pathway
Method: as §1, §2

chicken CTR + RAMP3 [5] = test: MAPK/ERK pGL4-SRE-luciferase reporter assay, CTR + RAMP3 in CHO cells; conditions: 10^−12 M to 10^−6 M, 6 h, mean ± SEM, n = 3, read-out: EC50, MAPK/ERK signaling pathway
Method: as §1, §2

[6] = test system: chicken CTR in the absence or presence of RAMPs; test: cAMP/PKA pGL3-CRE-luciferase reporter assay, CTR without and with RAMPs compared; conditions: CHO cells, pGL3-CRE-luciferase
Method: as §1, §4

chicken CTR + RAMP2 [7] = test: cAMP/PKA pGL3-CRE-luciferase reporter assay, CTR + RAMP2 in CHO cells; conditions: 10^−12 M to 10^−6 M, 6 h, mean ± SEM, n = 3, read-out: EC50, cAMP/PKA signaling pathway
Method: as §1, §2

chicken CTR + RAMP1 [8] = test: MAPK/ERK pGL4-SRE-luciferase reporter assay, CTR + RAMP1 in CHO cells; conditions: 10^−12 M to 10^−6 M, 6 h, mean ± SEM, n = 3, read-out: EC50, MAPK/ERK signaling pathway
Method: as §1, §2

chicken CTR [9] = test: Western blot CREB phosphorylation, CTR in CHO cells; conditions: 10 nM, 10 min, n = 3
Method: as §3

chicken CLR [10] = test: MAPK/ERK pGL4-SRE-luciferase reporter assay, CLR + pcDNA in CHO cells; conditions: 10^−12 M to 10^−6 M, 6 h, mean ± SEM, n = 3, read-out: EC50, MAPK/ERK signaling pathway
Method: as §1, §2

chicken CTR + RAMP2 [11] = test: Calcium pGL3-NFAT-RE-luciferase reporter assay, CTR + RAMP2 in CHO cells
Method: as §1, §4

chicken CTR + RAMP3 [12] = test: cAMP/PKA pGL3-CRE-luciferase reporter assay, CTR + RAMP3 in CHO cells; conditions: 10^−12 M to 10^−6 M, 6 h, mean ± SEM, n = 3, read-out: EC50, cAMP/PKA signaling pathway
Method: as §1, §2

chicken CTR + RAMPs = test: Western blot CREB phosphorylation, CTR + RAMPs in CHO cells; conditions: 10 nM, 10 min, n = 3
Method: as §3

calcitonin [CT]
EC50 (chicken CTR + RAMP2 [1]): 2.09 ± 0.42 nM | CREB phosphorylation (p-CREB/CREB vs. control, 0 min) (chicken CLR [2]): significantly enhanced the CREB phosphorylation | EC50 (chicken CLR + RAMP1): 3.3 ± 0.96 nM | EC50 (chicken CTR + RAMP1 [3]): > 100 nM | EC50 (chicken CTR [4]): 0.15 ± 0.05 nM | EC50 (chicken CLR + RAMP2): 0.93 ± 0.15 nM | EC50 (chicken CLR + RAMP3): 1.27 ± 0.83 nM | EC50 (chicken CTR + RAMP3 [5]): 0.38 ± 0.13 nM | effect of RAMP co-expression on sensitivity of CTR [6]: does not markedly influence the sensitivity of chicken CTR for CT; also recorded: a slight decrease in sensitivity towards CT | EC50 (chicken CTR + RAMP2 [7]): 0.67 ± 0.1 nM | EC50 (chicken CTR + RAMP1 [8]): 1.38 ± 0.24 nM | CREB phosphorylation (p-CREB/CREB vs. control, 0 min) (chicken CTR [9]): significantly increased the CREB phosphorylation | EC50 (chicken CLR [10]): 0.3 ± 0.12 nM | EC50 (chicken CTR + RAMP2 [11]; CTR + RAMP2, CHO cells, pGL3-NFAT-RE-luciferase, 10^−12 M to 10^−6 M, 6 h, mean ± SEM, n = 3, read-out: EC50, calcium signaling pathway): 2.5 ± 1.81 nM | elevation in luciferase activity, calcium signaling (chicken CTR + RAMP2 [11]; CTR + RAMP2, pGL3-NFAT-RE-luciferase, CHO cells): modest elevation in luciferase activity | EC50 (chicken CTR + RAMP3 [12]): 0.44 ± 0.1 nM | CREB phosphorylation (p-CREB/CREB vs. control, 0 min) (chicken CTR + RAMPs): significantly increased the CREB phosphorylation

From publication PMC11010885, “Functional Analysis and Tissue-Specific Expression of Calcitonin and CGRP with RAMP-Modulated Receptors CTR and CLR in Chickens” (Animals : an Open Access Journal from MDPI, 2024)
